Experiment [1] relates to Candida albicans C. a.^g (Table 6). Put plainly: microbe, parasite or virus in culture. On the set-up: species or system yeast; micro tube dilution MIC in YES (± 1.2 M sorbitol), complete growth inhibition by turbidity. The conditions noted are these: 48 h, read-out: MIC. In a few lines: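 Broth microdilution in YEPD, YES or these media with 1.2 M sorbitol; early log-phase cells at 2 X 10^6 cells/ml exposed to compound (up to 200 μg/ml, 2% DMSO final) at 30°C. Turbidity read at 24 and 48 h; MIC = lowest concentration giving complete inhibition (clear medium), ≥3 independent experiments.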

In experiment [2] the test system is C. albicans wild-type. The experiment is described as follows: microbe, parasite or virus in culture. On the set-up: species or system whole yeast cells; micro-culture broth dilution MIC in YES at 30 C, turbidity, complete growth inhibition. As to conditions: Candida albicans; YES medium, C. albicans strain f.

Values after ≈ are worked out from the molar mass of the structure shown.

In article PMC6689975, “Novel Cell Wall Antifungals Reveal a Special Synergistic Activity in pbr1 Mutants Resistant to the Glucan Synthesis Antifungals Papulacandins and Echinocandins” (Frontiers in Microbiology, 2019) one finds MIC data, which are given here for three compounds.

As to `CC[C@H](C)C[C@H](C)CCCCCCCCC(=O)N[C@H]1C[C@@H](O)[C@@H](NCCN)NC(=O)[C@@H]2[C@@H](O)CCN2C(=O)[C@H]([C@H](O)CCN)NC(=O)[C@H]([C@H](O)[C@@H](O)c2ccc(O)cc2)NC(=O)[C@@H]2C[C@@H](O)CN2C(=O)[C@H]([C@@H](C)O)NC1=O` [caspofungin], the MIC in experiment [1] amounted to 50 µg/mL (≈ 45.7 µM).

Consider `O=c1oc2ccc3ccccc3c2cc1-c1ccccc1CO` [compound 12], for which the MIC in experiment [2] is over 200 µg/mL.

Compound `O=c1oc2ccccc2cc1-c1ccccc1CO` [compound 15] displayed an MIC in experiment [2] of over 200 µg/mL.
